Experimental data: PubChem BioAssay AID1963977 (Molecular Pharmacology Branch, DTP, NCI, 2024)

Test system: 624824-186-R-J3-PDC multicell spheroids, viability
Experiment: Anticancer human tumor 624824-186-R-J3-PDC patient-derived colon adenocarcinoma cell line growth inhibition [PI3K]
Settings: for IC50: curve of first compound; for viability, T/C: stronger effect = lower value
Outline: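 Complex 3D spheroids (cancer cells + endothelial HUVEC + mesenchymal stem cells); drug pairs of targeted agent x inavolisib/alpelisib/duvelisib/copanlisib; half-log series from ~Cmax, max 10 microM if Cmax unknown; endpoint viability.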

[1] = second compound 0.00316 µM, first compound 0.0316 µM
[2] = second compound 0.00316 µM, first compound 0.1 µM
[3] = second compound 0.00316 µM, first compound 0.316 µM
[4] = second compound 0.00316 µM, first compound 1 µM
[5] = second compound 0.00316 µM, first compound 3.16 µM
[6] = second compound 0.00316 µM, first compound 10 µM
[7] = second compound 0.01 µM, first compound 0.0316 µM
[8] = second compound 0.01 µM, first compound 0.1 µM
[9] = second compound 0.01 µM, first compound 0.316 µM
[10] = second compound 0.01 µM, first compound 1 µM
[11] = second compound 0.01 µM, first compound 3.16 µM
[12] = second compound 0.01 µM, first compound 10 µM
[13] = second compound 0.0316 µM, first compound 0.0316 µM
[14] = second compound 0.0316 µM, first compound 0.1 µM
[15] = second compound 0.0316 µM, first compound 0.316 µM
[16] = second compound 0.0316 µM, first compound 1 µM
[17] = second compound 0.0316 µM, first compound 3.16 µM
[18] = second compound 0.0316 µM, first compound 10 µM
[19] = second compound 0.1 µM, first compound 0.0316 µM
[20] = second compound 0.1 µM, first compound 0.1 µM
[21] = second compound 0.1 µM, first compound 0.316 µM
[22] = second compound 0.1 µM, first compound 1 µM
[23] = second compound 0.1 µM, first compound 3.16 µM
[24] = second compound 0.1 µM, first compound 10 µM
[25] = second compound 0.316 µM, first compound 0.0316 µM
[26] = second compound 0.316 µM, first compound 0.1 µM
[27] = second compound 0.316 µM, first compound 0.316 µM
[28] = second compound 0.316 µM, first compound 1 µM
[29] = second compound 0.316 µM, first compound 3.16 µM
[30] = second compound 0.316 µM, first compound 10 µM
[31] = second compound 1 µM, first compound 0.0316 µM
[32] = second compound 1 µM, first compound 0.1 µM
[33] = second compound 1 µM, first compound 0.316 µM
[34] = second compound 1 µM, first compound 1 µM
[35] = second compound 1 µM, first compound 3.16 µM
[36] = second compound 1 µM, first compound 10 µM
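Further: spheroids exposed to agents for seven days before luminescence read.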
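Wherever viability, T/C is given: luminescent signal used as a stand-in for spheroid viability; percent viability relative to DMSO vehicle control wells taken as 100%.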

CC1(C)CCC(CN2CCN(c3ccc(C(=O)NS(=O)(=O)c4ccc(NCC5CCOCC5)c([N+](=O)[O-])c4)c(Oc4cnc5[nH]ccc5c4)c3)CC2)=C(c2ccc(Cl)cc2)C1 + CC(Nc1ccc2c(c1)OCCn1cc(N3C(=O)OCC3C(F)F)nc1-2)C(N)=O
IC50 (second compound 0.00316 µM): 9.41 µM | IC50 (second compound 0.01 µM): 8.77 µM | IC50 (second compound 0.0316 µM): 9.64 µM | IC50 (second compound 0.1 µM): 9.37 µM | IC50 (second compound 0.316 µM): > 10 µM | IC50 (second compound 1 µM): 9.12 µM | viability, T/C [1]: 104% | viability, T/C [2]: 88.6% | viability, T/C [3]: 102% | viability, T/C [4]: 90.9% | viability, T/C [5]: 112% | viability, T/C [6]: 47.3% | viability, T/C [7]: 105% | viability, T/C [8]: 92% | viability, T/C [9]: 99.5% | viability, T/C [10]: 106% | viability, T/C [11]: 114% | viability, T/C [12]: 43.2% | viability, T/C [13]: 100% | viability, T/C [14]: 105% | viability, T/C [15]: 89.4% | viability, T/C [16]: 99% | viability, T/C [17]: 117% | viability, T/C [18]: 48.3% | viability, T/C [19]: 88.7% | viability, T/C [20]: 99.9% | viability, T/C [21]: 90.9% | viability, T/C [22]: 109% | viability, T/C [23]: 102% | viability, T/C [24]: 47.1% | viability, T/C [25]: 98.5% | viability, T/C [26]: 95.3% | viability, T/C [27]: 99.2% | viability, T/C [28]: 86.3% | viability, T/C [29]: 89% | viability, T/C [30]: 53.6% | viability, T/C [31]: 82.7% | viability, T/C [32]: 85.5% | viability, T/C [33]: 85.7% | viability, T/C [34]: 81.4% | viability, T/C [35]: 70.2% | viability, T/C [36]: 48.2%

CNC(=O)c1ccc(N2C(=S)N(c3ccc(C#N)c(C(F)(F)F)c3)C(=O)C2(C)C)cc1F + CC(Nc1ncnc2nc[nH]c12)c1cc2cccc(Cl)c2c(=O)n1-c1ccccc1
IC50 (second compound 0.0316 µM): > 10 µM | IC50 (second compound 0.1 µM): > 10 µM | IC50 (second compound 0.316 µM): > 10 µM | IC50 (second compound 1 µM): > 10 µM | IC50 (second compound 3.16 µM): > 10 µM | IC50 (second compound 10 µM): > 10 µM | viability, T/C [13]: 107% | viability, T/C [14]: 102% | viability, T/C [15]: 110% | viability, T/C [16]: 97.1% | viability, T/C [17]: 92.8% | viability, T/C [18]: 102% | viability, T/C [19]: 97.7% | viability, T/C [20]: 101% | viability, T/C [21]: 104% | viability, T/C [22]: 108% | viability, T/C [23]: 106% | viability, T/C [24]: 116% | viability, T/C [25]: 96.6% | viability, T/C [26]: 93.3% | viability, T/C [27]: 105% | viability, T/C [28]: 94.2% | viability, T/C [29]: 105% | viability, T/C [30]: 117% | viability, T/C [31]: 98.8% | viability, T/C [32]: 101% | viability, T/C [33]: 107% | viability, T/C [34]: 117% | viability, T/C [35]: 104% | viability, T/C [36]: 101% | viability, T/C (second compound 3.16 µM, first compound 0.0316 µM): 100% | viability, T/C (second compound 3.16 µM, first compound 0.1 µM): 100% | viability, T/C (second compound 3.16 µM, first compound 0.316 µM): 112% | viability, T/C (second compound 3.16 µM, first compound 1 µM): 91.5% | viability, T/C (second compound 3.16 µM, first compound 3.16 µM): 108% | viability, T/C (second compound 3.16 µM, first compound 10 µM): 107% | viability, T/C (second compound 10 µM, first compound 0.0316 µM): 99.1% | viability, T/C (second compound 10 µM, first compound 0.1 µM): 95.2% | viability, T/C (second compound 10 µM, first compound 0.316 µM): 100% | viability, T/C (second compound 10 µM, first compound 1 µM): 88.1% | viability, T/C (second compound 10 µM, first compound 3.16 µM): 93.2% | viability, T/C (second compound 10 µM, first compound 10 µM): 97.9%

Cn1cnc2c(F)c(Nc3ccc(Br)cc3Cl)c(C(=O)NOCCO)cc21 + COc1c(OCCCN2CCOCC2)ccc2c3n(c(=NC(=O)c4cnc(N)nc4)nc12)CCN3
IC50 (second compound 0.00316 µM): 0.854 µM | IC50 (second compound 0.01 µM): 0.582 µM | IC50 (second compound 0.0316 µM): 0.189 µM | IC50 (second compound 0.1 µM): 0.0474 µM | IC50 (second compound 0.316 µM): < 0.00949 µM | IC50 (second compound 1 µM): < 0.00949 µM | viability, T/C (second compound 0.00316 µM, first compound 0.00949 µM): 102% | viability, T/C (second compound 0.00316 µM, first compound 0.03 µM): 95.9% | viability, T/C (second compound 0.00316 µM, first compound 0.0949 µM): 102% | viability, T/C (second compound 0.00316 µM, first compound 0.3 µM): 87.8% | viability, T/C (second compound 0.00316 µM, first compound 0.949 µM): 46.3% | viability, T/C (second compound 0.00316 µM, first compound 3 µM): 31.4% | viability, T/C (second compound 0.01 µM, first compound 0.00949 µM): 108% | viability, T/C (second compound 0.01 µM, first compound 0.03 µM): 88.4% | viability, T/C (second compound 0.01 µM, first compound 0.0949 µM): 86.4% | viability, T/C (second compound 0.01 µM, first compound 0.3 µM): 65.5% | viability, T/C (second compound 0.01 µM, first compound 0.949 µM): 37.1% | viability, T/C (second compound 0.01 µM, first compound 3 µM): 18.4% | viability, T/C (second compound 0.0316 µM, first compound 0.00949 µM): 88.9% | viability, T/C (second compound 0.0316 µM, first compound 0.03 µM): 89.6% | viability, T/C (second compound 0.0316 µM, first compound 0.0949 µM): 67.4% | viability, T/C (second compound 0.0316 µM, first compound 0.3 µM): 37.7% | viability, T/C (second compound 0.0316 µM, first compound 0.949 µM): 18.2% | viability, T/C (second compound 0.0316 µM, first compound 3 µM): 11.2% | viability, T/C (second compound 0.1 µM, first compound 0.00949 µM): 75.2% | viability, T/C (second compound 0.1 µM, first compound 0.03 µM): 57.9% | viability, T/C (second compound 0.1 µM, first compound 0.0949 µM): 38.5% | viability, T/C (second compound 0.1 µM, first compound 0.3 µM): 21% | viability, T/C (second compound 0.1 µM, first compound 0.949 µM): 13.5% | viability, T/C (second compound 0.1 µM, first compound 3 µM): 5.3% | viability, T/C (second compound 0.316 µM, first compound 0.00949 µM): 43.3% | viability, T/C (second compound 0.316 µM, first compound 0.03 µM): 28.9% | viability, T/C (second compound 0.316 µM, first compound 0.0949 µM): 17.9% | viability, T/C (second compound 0.316 µM, first compound 0.3 µM): 9.77% | viability, T/C (second compound 0.316 µM, first compound 0.949 µM): 4.7% | viability, T/C (second compound 0.316 µM, first compound 3 µM): 1.14% | viability, T/C (second compound 1 µM, first compound 0.00949 µM): 22.7% | viability, T/C (second compound 1 µM, first compound 0.03 µM): 16% | viability, T/C (second compound 1 µM, first compound 0.0949 µM): 10.1% | viability, T/C (second compound 1 µM, first compound 0.3 µM): 8.08% | viability, T/C (second compound 1 µM, first compound 0.949 µM): 3.21% | viability, T/C (second compound 1 µM, first compound 3 µM): 1.3%

CC(C)NCC(C(=O)N1CCN(c2ncnc3c2C(C)CC3O)CC1)c1ccc(Cl)cc1 (stereo not drawn) + COc1c(OCCCN2CCOCC2)ccc2c3n(c(=NC(=O)c4cnc(N)nc4)nc12)CCN3
IC50 (second compound 0.00316 µM): > 10 µM | IC50 (second compound 0.01 µM): > 10 µM | IC50 (second compound 0.0316 µM): 7.59 µM | IC50 (second compound 0.1 µM): 4.86 µM | IC50 (second compound 0.316 µM): 0.0351 µM | IC50 (second compound 1 µM): < 0.0316 µM | viability, T/C [1]: 101% | viability, T/C [2]: 103% | viability, T/C [3]: 106% | viability, T/C [4]: 76.1% | viability, T/C [5]: 68.3% | viability, T/C [6]: 56.4% | viability, T/C [7]: 109% | viability, T/C [8]: 97.1% | viability, T/C [9]: 101% | viability, T/C [10]: 82.2% | viability, T/C [11]: 64.5% | viability, T/C [12]: 52.7% | viability, T/C [13]: 104% | viability, T/C [14]: 110% | viability, T/C [15]: 85.6% | viability, T/C [16]: 84.8% | viability, T/C [17]: 60% | viability, T/C [18]: 46.7% | viability, T/C [19]: 73.2% | viability, T/C [20]: 75% | viability, T/C [21]: 66.2% | viability, T/C [22]: 60.8% | viability, T/C [23]: 57.4% | viability, T/C [24]: 41.4% | viability, T/C [25]: 47.9% | viability, T/C [26]: 49% | viability, T/C [27]: 46.5% | viability, T/C [28]: 38.5% | viability, T/C [29]: 37.5% | viability, T/C [30]: 33.7% | viability, T/C [31]: 29.4% | viability, T/C [32]: 28.5% | viability, T/C [33]: 28.7% | viability, T/C [34]: 27.1% | viability, T/C [35]: 26.9% | viability, T/C [36]: 27.8%
